Results on seven compounds are retold here after ChEMBL document CHEMBL1201862, “PubChem BioAssay data set” (2004).

Molecules are shown by their SMILES.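 1) Cells in 96-well plates. 2) Compound, 48 h, 5 concentrations. 3) Linear interpolation between surrounding doses. 4) Unreached endpoint = highest concentration. Abbreviation: GI50, concentration required for 50% inhibition of growth.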 Active and inactive are the calls of the source. Cut-off read from the data, not from the text of the source: active = GI50 up to about 1.1 µM and inactive = higher. Some results are limits rather than exact numbers.

As usually defined, the GI50 is the concentration giving 50% growth inhibition.

Test systems include A549; COLO 205; HCT-116; HCT-15; Hs-578T; K562; M14; MOLT-4; Malme-3M; NCI-H226; NCI-H522; OVCAR-3; PC-3; SK-OV-3; SR; T47D; U-251; UACC-62; UO-31.
Test in all cases: DTP human tumour cell line panel, 48 h

On to `CC(=O)NC1C(OC(C)C(=O)NC(C)C(=O)NC(CCC(=O)NCCCCCNc2ccc([N+](=O)[O-])c3[nH]c4ccccc4c(=O)c23)C(N)=O)C(O)C(CO)OC1(C)OCc1ccccc1` (stereo not drawn), for which the GI50 with A549 was 50.8 µM (inactive); in the assay on COLO 205, > 100 µM (inactive); with HCT-116 it was 23.7 µM (inactive); with HCT-15, 73.8 µM; in the assay with Hs-578T, > 100 µM (inactive); in the assay with K562, 45.3 µM (inactive). Further, the GI50 with M14 is > 100 µM (inactive); in the assay on MOLT-4, 24.8 µM (inactive); in the assay with Malme-3M, > 100 µM (inactive); with NCI-H226, 89.9 µM (inactive); in the assay with NCI-H522 it was > 100 µM (inactive); in the assay on OVCAR-3, > 100 µM (inactive). Moreover, the GI50 in the assay on PC-3 is > 100 µM (inactive); in the assay on SK-OV-3, > 100 µM (inactive); in the assay with SR, 14 µM (inactive); in the assay on T47D, > 100 µM (inactive); in the assay with U-251, > 100 µM (inactive); in the assay with UACC-62, > 100 µM (inactive). Moreover, in the assay with UO-31, the GI50 was 50.4 µM (inactive).

Take `CN(C)CCCNc1c2c(=O)n(C)c(=O)nc-2n(C)c2ccccc12`: the GI50 in the assay with A549 was 4.74 µM (inactive); with COLO 205, 3.21 µM (inactive); in the assay on HCT-116, 3.69 µM (inactive); in the assay on HCT-15, 20.1 µM; with Hs-578T it was 10.1 µM (inactive); in the assay with K562 it was 4.8 µM (inactive). For the same compound, the GI50 with M14 was 5.02 µM (inactive); with MOLT-4 it was 3.01 µM (inactive); in the assay on Malme-3M it was 3.11 µM (inactive); in the assay on NCI-H226, 5.07 µM (inactive); in the assay on NCI-H522, 2.45 µM (inactive); in the assay with OVCAR-3 it was 1.25 µM (inactive). In addition, the GI50 in the assay with PC-3 is 4.08 µM (inactive); with SK-OV-3, 6.24 µM (inactive); in the assay with SR it was 3 µM (inactive); in the assay on T47D it was 5.12 µM (inactive); in the assay on U-251, 3.26 µM (inactive); in the assay on UACC-62, 5.22 µM (inactive). Further, the GI50 in the assay with UO-31 was 4.51 µM (inactive).

With `COc1cccc(CCNc2c(C#N)c3n(c4ccccc4[n+]3C)c3ncccc23)c1`, the GI50 with A549 was 1.82 µM (inactive); in the assay on COLO 205 it was 4.93 µM (inactive); in the assay with HCT-116, 1.77 µM (inactive); with HCT-15, 1.75 µM; with Hs-578T, 7.31 µM (inactive); with K562, 2.39 µM (inactive). In addition, the GI50 in the assay on M14 is 1.76 µM (inactive); in the assay with MOLT-4, 2.55 µM (inactive); in the assay on Malme-3M, 17.5 µM (inactive); in the assay with NCI-H226, 20.9 µM (inactive); with NCI-H522 it was 4.16 µM (inactive); in the assay with OVCAR-3, 19.6 µM (inactive). Besides, the GI50 is 14.4 µM (inactive) in the assay with PC-3; 20.3 µM (inactive) with SK-OV-3; > 100 µM (inactive) with SR; 6.59 µM (inactive) in the assay on T47D; 2.37 µM (inactive) in the assay on U-251; 20.8 µM (inactive) with UACC-62. Moreover, the GI50 with UO-31 is 4.53 µM (inactive).

For `CCOC(=O)Nc1cc2ccccc2c(/N=N/c2ccccc2)c1O`, the GI50 in the assay on A549 is > 100 µM (inactive); in the assay on COLO 205 it was > 100 µM (inactive); with HCT-116 it was > 100 µM (inactive); with HCT-15, above 100 µM; in the assay with Hs-578T, 25.2 µM (inactive); with K562, > 100 µM (inactive). The GI50 in the assay with M14 was > 100 µM (inactive); in the assay with MOLT-4, > 100 µM (inactive); in the assay with Malme-3M, 55.6 µM (inactive); in the assay with NCI-H226, > 100 µM (inactive); in the assay on NCI-H522 it was 29.6 µM (inactive); with OVCAR-3 it was > 100 µM (inactive). Further, the GI50 in the assay on PC-3 was > 100 µM (inactive); in the assay with SK-OV-3 it was 17.2 µM (inactive); in the assay with SR, > 100 µM (inactive); in the assay on T47D it was 91.4 µM (inactive); with U-251 it was 26.5 µM (inactive); with UACC-62, > 100 µM (inactive). The GI50 with UO-31 is > 100 µM (inactive).

Consider `O=C1c2ccccc2-c2c1c1ccccc1c(=O)n2-c1cccnc1`, for which the GI50 in the assay with A549 was 11.5 µM (inactive); in the assay with COLO 205 it was > 68.1 µM (inactive); in the assay with HCT-116, 27.3 µM (inactive); in the assay on HCT-15 it was 24.9 µM; in the assay with Hs-578T it was 37 µM (inactive); in the assay on K562, > 60.3 µM (inactive). Also, the GI50 is > 100 µM (inactive) in the assay on M14; 3.78 µM (inactive) in the assay with MOLT-4; > 95.3 µM (inactive) in the assay on Malme-3M; 61.5 µM (inactive) in the assay on NCI-H226; 10.5 µM (inactive) in the assay on NCI-H522; > 71.3 µM (inactive) in the assay on OVCAR-3. Besides, the GI50 in the assay with PC-3 was > 54.3 µM (inactive); in the assay with SK-OV-3, 42.6 µM (inactive); with SR, 5.53 µM (inactive); with T47D, > 64.4 µM (inactive); in the assay on U-251, 22.7 µM (inactive); with UACC-62, 32 µM (inactive). Besides, the GI50 in the assay with UO-31 is > 48.8 µM (inactive).

`CCn1ncc2c(=O)n3ncn(-c4ccc(Br)cc4)c3nc21`: the GI50 is > 100 µM (inactive) in the assay on A549; > 100 µM (inactive) with COLO 205; > 100 µM (inactive) in the assay with HCT-116; above 100 µM in the assay with HCT-15; > 100 µM (inactive) in the assay with Hs-578T; > 100 µM (inactive) with K562. The GI50 in the assay with M14, in the assay with MOLT-4, in the assay with Malme-3M, in the assay on NCI-H226, with NCI-H522 and in the assay on OVCAR-3 was > 100 µM (inactive) each time. Moreover, the GI50 with PC-3 is > 100 µM (inactive); with SK-OV-3 it was > 100 µM (inactive); with SR, 58.1 µM (inactive); with T47D, > 100 µM (inactive); in the assay with U-251, > 100 µM (inactive); in the assay on UACC-62 it was > 100 µM (inactive). Moreover, in the assay on UO-31, the GI50 is > 100 µM (inactive).

Consider `CC(C)=CCC[C@@H](C)[C@H]1CC[C@@]2(C)[C@@H]3CC[C@H]4C(C)(C)[C@@H](O)CC[C@@]45C[C@@]35CC[C@]12C` [CYCLOARTENOL], for which the GI50 with A549 was 21.6 µM (inactive); in the assay with COLO 205, > 60 µM (inactive); in the assay on HCT-116, 23.5 µM (inactive); with HCT-15, above 100 µM; with Hs-578T, 33.4 µM (inactive); in the assay on K562 it was 26 µM (inactive). Moreover, the GI50 with M14 was 41 µM (inactive); with MOLT-4, > 51.9 µM (inactive); with Malme-3M it was > 100 µM (inactive); in the assay on NCI-H226, 26.5 µM (inactive); in the assay on NCI-H522, 20.7 µM (inactive); in the assay on OVCAR-3, > 100 µM (inactive). Also, the GI50 in the assay on PC-3 is > 71.8 µM (inactive); with SK-OV-3, 53.5 µM (inactive); in the assay with SR, 24.3 µM (inactive); in the assay with T47D, 51.4 µM (inactive); in the assay on U-251 it was 15.5 µM (inactive); in the assay with UACC-62, 44.4 µM (inactive). Besides, the GI50 in the assay with UO-31 was > 40.7 µM (inactive).
